Results as given in patent US4201774A, “Novel aminoglycoside derivatives” (Shionogi & Co., Ltd., priority 1977, dated 1980).
≈ marks a conversion by molar mass, not a printed value.

Key:
[1] = test system: Pseudomonas aeruginosa TB-485; assay: MIC, Pseudomonas aeruginosa TB-485*; type: cell-based; settings: TB485; Pseudomonas aeruginosa TB-485, tobramycin resistant strain; read-out: minimum inhibitory concentration (MIC)
Proteus mirabilis TB-617 = assay: MIC, Proteus mirabilis TB-617*; type: cell-based; settings: TB617; Proteus mirabilis TB-617, tobramycin resistant strain; read-out: minimum inhibitory concentration (MIC)

Row | Structure (SMILES) | MIC [1] | MIC (Proteus mirabilis TB-617)
1 | NC[C@H]1O[C@H](O[C@H]2[C@H](O)[C@@H](O[C@H]3O[C@H](CO)[C@@H](O)[C@H](N)[C@H]3O)[C@H](NCC3(O)CNC3)C[C@@H]2N)[C@H](N)C[C@@H]1O [Test compound (1), 1-N-[(3-hydroxyazetidin-3-yl)methyl]tobramycin] | 6.25 µg/mL (≈ 11.3 µM) | 1.56 µg/mL (≈ 2.82 µM)
2 | NC[C@H]1O[C@H](O[C@H]2[C@H](O)[C@@H](O[C@H]3O[C@H](CO)[C@@H](O)[C@H](N)[C@H]3O)[C@H](NCC3(O)CCNC3)C[C@@H]2N)[C@H](N)C[C@@H]1O (stereo partly shown) [Test compound (2), 1-N-[(3-hydroxypyrrolidin-3-yl)methyl]tobramycin] | 3.13 µg/mL (≈ 5.52 µM) | 1.56 µg/mL (≈ 2.75 µM)
3 | NC[C@H]1O[C@H](O[C@H]2[C@H](O)[C@@H](O[C@H]3O[C@H](CO)[C@@H](O)[C@H](N)[C@H]3O)[C@H](NCC3(O)CNC3)C[C@@H]2N)[C@H](O)[C@@H](O)[C@@H]1O [Test compound (3), 1-N-[(3-hydroxyazetidin-3-yl)methyl]kanamycin A] | 6.25 µg/mL (≈ 11 µM) | 6.25 µg/mL (≈ 11 µM)
4 | NC[C@H]1O[C@H](O[C@H]2[C@H](O)[C@@H](O[C@H]3O[C@H](CO)[C@@H](O)[C@H](N)[C@H]3O)[C@H](NCC3(O)CCNC3)C[C@@H]2N)[C@H](O)[C@@H](O)[C@@H]1O (stereo partly shown) [Test compound (4), 1-N-[(3-hydroxypyrrolidin-3-yl)methyl]kanamycin A] | 6.25 µg/mL (≈ 10.7 µM) | 3.13 µg/mL (≈ 5.36 µM)
5 | NC[C@H]1O[C@H](O[C@H]2[C@H](O)[C@@H](O[C@H]3O[C@H](CO)[C@@H](O)[C@H](N)[C@H]3O)[C@H](N)C[C@@H]2N)[C@H](N)C[C@@H]1O [Test compound (5), tobramycin, reference compound] | 25 µg/mL (≈ 53.5 µM) | 6.25 µg/mL (≈ 13.4 µM)
